Measured values as given in US11180479B2 (HAPLOGEN GmbH, priority 2017, dated 2021).

Tests used:
[1] = molecular target: T1, PLA2G16 (Homo sapiens, UniProt P53816); test: Enzyme activity assay for PLA2G16 (Red/Green BODIPY PC-A2 fluorescence); assay type: biochemical; details: His-tagged PLA2G16, 4 min pre-incubation, compound 2 nM to 50 μM; first symbol in parentheses
T1 construct: Hexa-His (N); made in house; host or cells: E. coli BL21(DE3)
T1 sequence (P53816 1-162): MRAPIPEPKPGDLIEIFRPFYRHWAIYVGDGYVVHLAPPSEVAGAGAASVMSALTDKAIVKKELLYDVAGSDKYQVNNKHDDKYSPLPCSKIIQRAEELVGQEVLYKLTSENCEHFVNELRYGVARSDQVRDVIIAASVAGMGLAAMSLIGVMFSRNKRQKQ
Outline: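 N-His human PLA2G16 was expressed in E. coli and Ni-NTA purified. Enzyme in 5 mM glutathione was preincubated 4 min with compound (2 nM–50 μM final), then Red/Green BODIPY PC-A2 in DOPC/DOPG/cholesterol vesicles was added (50 mM Tris pH 8.5, 100 mM NaCl). Fluorescence increase (ex 480/em 530 nm) over 10 min gave activity; IC50 came from nonlinear regression.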

[2] = system: picornaviruses (CVB1, HRV-A2, HRV-A23, EV-68); test: Anti-picornavirus cytopathic effect (CPE) reduction assay on HeLa H1 cells; assay type: cell-based; details: 48 h, category from averaging EC50 values of four picornaviruses (CVB1, HRV-A2, HRV-A23, EV68), second symbol in parentheses
Outline: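 HeLa H1 cells pre-treated 2 h with serial compound dilutions in 2% FBS DMEM, then infected at an MOI giving full CPE in 2 days; after 48 h, viability by CellTiterBlue fluorescence (560/590 nm) normalised to infected and uninfected vehicle controls; EC50 by non-linear regression, averaged over the four viruses.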

| SMILES | IC50 [1] [µM] | EC50 [2] [µM] |
| --- | --- | --- |
| O=C(NC1CC1)C(=O)[C@H]1CN(c2cccc(=O)[nH]2)C(=O)[C@@H]1Cc1ccccc1 (racemic) [FP-70, Rac-2-[(3R,4R)-4-benzyl-5-oxo-1-(6-oxo-1,6-dihydropyridin-2-yl)pyrrolidin-3-yl]-N-cyclopropyl-2-oxoacetamide] | < 1 | < 1 |
| CCNC(=O)C(=O)[C@H]1CN(c2ncccn2)C(=O)[C@@H]1Cc1ccccc1 (racemic) [FP-59, Rac-2-[(3R,4R)-4-benzyl-5-oxo-1-(pyrimidin-2-yl)pyrrolidin-3-yl]-N-ethyl-2-oxo-acetamide] | < 1 | 1 to 10 |
| O=C(NCC1CC1)C(=O)[C@H]1CNC(=O)[C@@H]1Cc1ccc(F)cc1 (racemic) [FP-31, Rac-N-(cyclopropylmethyl)-2-[(3R,4R)-4-[(4-fluorophenyl)methyl]-5-oxopyrrolidin-3-yl]-2-oxoacetamide] | < 1 | < 1 |
| O=C(NC1CC1)C(=O)[C@H]1CN(Cc2ncccn2)C(=O)[C@@H]1Cc1ccccc1 (racemic) [FP-35, Rac-2-[(3R,4R)-4-benzyl-5-oxo-1-[(pyrimidin-2-yl)methyl]pyrrolidin-3-yl]-N-cyclopropyl-2-oxoacetamide] | < 1 | 1 to 10 |
| CC(C)CNC(=O)C(=O)[C@H]1CNC(=O)[C@@H]1Cc1ccccn1 (racemic) [FP-80, Rac-N-(2-methylpropyl)-2-oxo-2-[(3R,4R)-5-oxo-4-[(pyridin-2-yl)methyl]pyrrolidin-3-yl]acetamide] | < 1 | < 1 |
| CC(F)(F)CNC(=O)C(=O)[C@H]1CN(c2cccc(OCc3ccccc3)n2)C(=O)[C@@H]1Cc1ccccc1 (racemic) [FP-73, Rac-2-[(3R,4R)-4-benzyl-1-[6-(benzyloxy)pyridin-2-yl]-5-oxopyrrolidin-3-yl]-N-(2,2-difluoropropyl)-2-oxoacetamide] | < 1 | < 1 |
| O=C(NCC1CC1)C(=O)[C@H]1CN(c2cncnc2)C(=O)[C@@H]1c1ccccc1 (racemic) [FP-64, Rac-N-(cyclopropylmethyl)-2-oxo-2-[(3R,4S)-5-oxo-4-phenyl-1-(pyrimidin-5-yl)pyrrolidin-3-yl]acetamide] | < 1 | 1 to 10 |
| Cc1cc(CN2C[C@H](C(=O)C(=O)NC3CC3)[C@@H](Cc3ccccc3)C2=O)no1 (racemic) [FP-41, Rac-2-[(3R,4R)-4-benzyl-1-[(5-methyl-1,2-oxazol-3-yl)methyl]-5-oxopyrrolidin-3-yl]-N-cyclopropyl-2-oxoacetamide] | < 1 | < 1 |
| O=C(NCC1CC1)C(=O)[C@@H]1CNC(=O)[C@H]1Cc1ccccc1 (single isomer, unassigned) [FP-82] | < 1 | 1 to 10 |
| Cc1ncncc1N1C[C@H](C(=O)C(=O)NC2CC2)[C@@H](Cc2ccccc2)C1=O (racemic) [FP-67, Rac-2-[(3R,4R)-4-benzyl-1-(4-methylpyrimidin-5-yl)-5-oxopyrrolidin-3-yl]-N-cyclopropyl-2-oxoacetamide] | < 1 | 1 to 10 |
| O=C(NC1CC1)C(=O)[C@H]1CN(c2ncccn2)C(=O)[C@@H]1Cc1ccccc1 (racemic) [FP-58, Rac-2-[(3R,4R)-4-benzyl-5-oxo-1-(pyrimidin-2-yl)pyrrolidin-3-yl]-N-cyclopropyl-2-oxoacetamide] | < 1 | 1 to 10 |
| CC(C)NC(=O)C(=O)[C@H]1CNC(=O)[C@@H]1c1ccc(F)cc1 (racemic) [FP-27, Rac-2-[(3R,4S)-4-(4-fluorophenyl)-5-oxopyrrolidin-3-yl]-2-oxo-N-(propan-2-yl)acetamide] | < 1 | 1 to 10 |
| O=C(NC1CC1)C(=O)[C@H]1CN(c2cccc(OCc3ccccc3)n2)C(=O)[C@@H]1Cc1ccccc1 (racemic) [FP-69, Rac-2-[(3R,4R)-4-benzyl-1-[6-(benzyloxy)pyridin-2-yl]-5-oxopyrrolidin-3-yl]-N-cyclopropyl-2-oxoacetamide] | < 1 | < 1 |
| Cc1cc(CN2C[C@H](C(=O)C(=O)NC3CC3)[C@@H](Cc3ccccc3)C2=O)on1 (racemic) [FP-46, Rac-2-[(3R,4R)-4-benzyl-1-[(3-methyl-1,2-oxazol-5-yl)methyl]-5-oxopyrrolidin-3-yl]-N-cyclopropyl-2-oxoacetamide] | < 1 | 1 to 10 |
| CCNC(=O)C(=O)[C@H]1CNC(=O)[C@@H]1Cc1ccccc1 (racemic) [FP-3, Rac-2-[(3R,4R)-4-benzyl-5-oxopyrrolidin-3-yl]-N-ethyl-2-oxoacetamide] | < 1 | < 1 |
| O=C(NCC(F)F)C(=O)[C@@H]1CNC(=O)[C@H]1Cc1ccccc1 (single isomer, unassigned) [FP-84] | 1 to 10 | > 10 |
